According to patent publication US5880258A (dated 1999):
*1 amine or outer side, *2 acyl side, *3 side chain or, on linkers, in order; H or OH if unused. Where a SMILES comes first, the peptide text is derived from it. Where no end group is shown, it is not given here. [ ]: non-standard residue; d: D form. The star is where a group is joined. sY = N[C@@H](Cc1ccc(OS(=O)(=O)O)cc1)C(=O)O; X2 = CC(C)C[C@H](N*)C(=O)NP(=O)(O)O; Asu = N[C@@H](CCCCCC(=O)O)C(=O)O; dAsu = N[C@H](CCCCCC(=O)O)C(=O)O; NH(3-hydroxypropyl) = OCCCN*; Suc = O=C(CCC(=O)[*:2])[*:1]; Leu(ol) = CC(C)C[C@H](N)CO; βAla = NCCC(=O)O

Target: thrombin (Homo sapiens, UniProt P00734)
Test: anti-thrombin activity; clotting assay (coagulation time with fibrinogen as substrate)
Assay type: biochemical
Design: 100 μl of human-thrombin prepared at 10 NIH units/ml in aforesaid buffer
Conditions: for Potency: calculated using the definition that HV-1 (54-65) potency is 1; for IC50: concentration corresponding to 50 thrombin units, human-thrombin 10 NIH units/ml, human-fibrinogen 6 mg/ml, read-out: 50% Inhibition Concentration (converted)
Method: Measurement of anti-thrombin activity was done by looking at anti-coagulant activity as an index using fibrinogen as the substrate. That is, the compounds were dossolved in 200 μl of 0.1 mM Tris-HCl buffer (pH7.5) containing 0.1% polyethyleneglycol-6000, 100 μl of human-thrombin prepared at 10 NIH units/ml in aforesaid buffer, were added 200 μl of human-fibrinogen (Sigma) prepared at 6 mg/ml in aforesaid tris-hydrochloride buffer were added, and the coagulation time of the reaction mixtures were measured. For measuring of coagulation times, coagulation time analyzer (Amelung KC10A) was used. Obtained values were converted into units by using a previously prepared thrombin standard curve. Graphs were prepared by plotting the converted values on the vertical axis, and the concentrations of the compounds on the horizontal axis. In the graphs, the thrombin unit was defined as 100 at a compound concentration of 0. The concentration of compounds corresponding to 50 units were defined as 50% inhibitory concentrations of compounds.

Row | Molecule | Potency | IC50 [µM]
1 | CC[C@H](C)[C@H](NC(=O)[C@@H]1CCCN1C(=O)[C@H](CCC(=O)O)NC(=O)[C@H](Cc1ccccc1)NC(=O)CCC(=O)O)C(=O)N1CCC[C@H]1C(=O)N[C@@H](CCC(=O)O)C(=O)N[C@@H](Cc1ccc(OS(=O)(=O)O)cc1)C(=O)N[C@@H](Cc1ccc(OS(=O)(=O)O)cc1)C(=O)N[C@@H](CC(C)C)C(=O)N[C@@H](CCC(N)=O)C(=O)O [Sulfated form of (G), Suc--Phe--Glu--Pro--Ile--Pro--Glu--Tyr(SO3 H)--Tyr(SO3 H)--Leu--Gln--OH] (Suc-FEPIPE[sY][sY]LQ-OH) | 108.87 | 0.0389
2 | CC[C@H](C)[C@H](NC(=O)[C@@H]1CCCN1C(=O)[C@H](CCC(=O)O)NC(=O)[C@H](Cc1ccccc1)NC(=O)CCC(=O)O)C(=O)N1CCC[C@H]1C(=O)N[C@@H](CCC(=O)O)C(=O)N[C@@H](Cc1ccc(O)cc1)C(=O)N[C@@H](Cc1ccc(O)cc1)C(=O)N[C@@H](CC(C)C)C(=O)N[C@@H](CCCCCC(=O)OC)C(=O)OC [(V)] (Suc-FEPIPEYYL[Asu](OMe)-OMe) |  | 20.7
3 | CC[C@H](C)[C@H](NC(=O)[C@@H]1CCCN1C(=O)[C@H](CCC(=O)O)NC(=O)[C@H](Cc1ccccc1)NC(=O)CCC(=O)O)C(=O)N1CCC[C@H]1C(=O)N[C@@H](CCC(=O)O)C(=O)N[C@@H](Cc1ccc(OS(=O)(=O)O)cc1)C(=O)N[C@@H](Cc1ccc(OS(=O)(=O)O)cc1)C(=O)NCCC(=O)O [Sulfated form of (K), Suc--Phe--Glu--Pro--Ile--Pro--Glu--Tyr(SO3 H)--Tyr(SO3 H)--NH(CH2)2 COOH] (Suc-FEPIPE[sY][sY][βAla]-OH) | 1.02 | 4.65
4 | CC[C@H](C)[C@H](NC(=O)[C@@H]1CCCN1C(=O)[C@H](CCC(=O)O)NC(=O)[C@H](Cc1ccccc1)NC(=O)[C@H](CC(=O)O)NC(=O)CNC(=O)CCC(=O)O)C(=O)N1CCC[C@H]1C(=O)N[C@@H](Cc1ccc(OS(=O)(=O)O)cc1)C(=O)N[C@@H](Cc1ccc(OS(=O)(=O)O)cc1)C(=O)N[C@@H](Cc1ccc(OS(=O)(=O)O)cc1)C(=O)N[C@@H](CC(C)C)C(=O)N[C@@H](CCC(N)=O)C(=O)O [Sulfated form of (E), Suc--Gly--Asp--Phe--Glu--Pro--Ile--Pro--Tyr(SO3 H)--Tyr(SO3 H)--Tyr(SO3 H)--Leu--Gln--OH] (Suc-GDFEPIP[sY][sY][sY]LQ-OH) | 44.41 | 0.0807
5 | CC[C@H](C)[C@H](NC(=O)[C@@H]1CCCN1C(=O)[C@H](CCC(=O)O)NC(=O)[C@H](Cc1ccccc1)NC(=O)CCC(=O)O)C(=O)N1CCC[C@H]1C(=O)N[C@@H](CCC(=O)O)C(=O)N[C@@H](Cc1ccc(O)cc1)C(=O)N[C@@H](Cc1ccc(O)cc1)C(=O)N[C@@H](CC(C)C)C(=O)N[C@H](CCCCCC(N)=O)C(N)=O [(W)] (Suc-FEPIPEYYL[dAsu](NH2)-NH2) |  | 24.3
6 | CC[C@H](C)[C@H](NC(=O)[C@H](CCC(=O)O)NC(=O)[C@H](CCC(=O)O)NC(=O)[C@H](Cc1ccccc1)NC(=O)[C@H](CC(=O)O)NC(=O)CN)C(=O)N1CCC[C@H]1C(=O)N[C@@H](Cc1ccc(O)cc1)C(=O)N[C@@H](Cc1ccc(O)cc1)C(=O)N[C@@H](Cc1ccc(OS(=O)(=O)O)cc1)C(=O)N[C@@H](CC(C)C)C(=O)N[C@@H](CCC(N)=O)C(=O)O (single isomer, unassigned) [Sulfated form of (B) peak 3, Gly--Asp--Phe--Glu--Glu--Ile--Pro--Tyr--Tyr--Tyr(SO3 H)--Leu--Gln] |  | 2.49
7 | CC[C@H](C)[C@H](NC(=O)[C@@H]1CCCN1C(=O)[C@H](CCC(=O)O)NC(=O)[C@H](Cc1ccccc1)NC(=O)CCC(=O)O)C(=O)N1CCC[C@H]1C(=O)N[C@@H](CCC(=O)O)C(=O)N[C@@H](Cc1ccc(O)cc1)C(=O)N[C@@H](Cc1ccc(O)cc1)C(=O)NCCCO [(N)] (Suc-FEPIPEYY-{NH(3-hydroxypropyl)}) |  | 84.9
8 | CC[C@H](C)[C@H](NC(=O)[C@@H]1CCCN1C(=O)[C@H](CCC(=O)O)NC(=O)[C@H](Cc1ccccc1)NC(=O)CCC(=O)O)C(=O)N1CCC[C@H]1C(=O)N[C@@H](CCC(=O)O)C(=O)N[C@@H](Cc1ccc(O)cc1)C(=O)N[C@@H](Cc1ccc(O)cc1)C(N)=O [(J)] (Suc-FEPIPEYY-NH2) | 0.07 | 85.1
9 | CC[C@H](C)[C@H](NC(=O)[C@H](CCC(=O)O)NC(=O)[C@H](CCC(=O)O)NC(=O)[C@H](Cc1ccccc1)NC(=O)[C@H](CC(=O)O)NC(=O)CN)C(=O)N1CCC[C@H]1C(=O)N[C@@H](CCC(=O)O)C(=O)N[C@@H](Cc1ccc(O)cc1)C(=O)N[C@@H](Cc1ccc(OS(=O)(=O)O)cc1)C(=O)N[C@@H](CC(C)C)C(=O)N[C@@H](CCC(N)=O)C(=O)O [Sulfated form of (A), Gly--Asp--Phe--Glu--Glu--Ile--Pro--Glu--Tyr--Tyr(SO3 H)--Leu--Gln] (H-GDFEEIPEY[sY]LQ-OH) |  | 2.15
10 | CC[C@H](C)[C@H](NC(=O)[C@@H]1CCCN1C(=O)[C@H](CCC(=O)O)NC(=O)[C@H](Cc1ccccc1)NC(=O)[C@H](CC(=O)O)NC(=O)CNC(=O)CCC(=O)O)C(=O)N1CCC[C@H]1C(=O)N[C@@H](CCC(=O)O)C(=O)N[C@@H](Cc1ccc(OS(=O)(=O)O)cc1)C(=O)N[C@@H](Cc1ccc(OS(=O)(=O)O)cc1)C(=O)N[C@@H](CC(C)C)C(=O)N[C@@H](CCC(N)=O)C(N)=O [Sulfated form of (D), Suc--Gly--Asp--Phe--Glu--Pro--Ile--Pro--Glu--Tyr(SO3 H)--Tyr(SO3 H)--Leu--Gln--NH2] (Suc-GDFEPIPE[sY][sY]LQ-NH2) | 57.07 | 0.0669
11 | CC[C@H](C)[C@H](NC(=O)[C@@H]1CCCN1C(=O)[C@H](CCC(=O)O)NC(=O)[C@H](Cc1ccccc1)NC(=O)CCC(=O)O)C(=O)N1CCC[C@H]1C(=O)N[C@@H](CCC(=O)O)C(=O)N[C@@H](Cc1ccc(O)cc1)C(=O)N[C@@H](Cc1ccc(O)cc1)C(=O)O [(I)] (Suc-FEPIPEYY-OH) | 0.83 | 17.3
12 | CC[C@H](C)[C@H](NC(=O)[C@H](CCC(=O)O)NC(=O)[C@H](CCC(=O)O)NC(=O)[C@H](Cc1ccccc1)NC(=O)[C@H](CC(=O)O)NC(=O)CN)C(=O)N1CCC[C@H]1C(=O)N[C@@H](Cc1ccc(O)cc1)C(=O)N[C@@H](Cc1ccc(OS(=O)(=O)O)cc1)C(=O)N[C@@H](Cc1ccc(OS(=O)(=O)O)cc1)C(=O)N[C@@H](CC(C)C)C(=O)N[C@@H](CCC(N)=O)C(=O)O (single isomer, unassigned) [Sulfated form of (B) peak 1, Gly--Asp--Phe--Glu--Glu--Ile--Pro--Tyr--Tyr(SO3 H)--Tyr(SO3 H)--Leu--Gln] |  | 0.291
13 | GDFEEIPEYYLQ [(A)] |  | 9.78
14 | GDFEEIPYYYLQ [(B)] |  | 9
15 | CC[C@H](C)[C@H](NC(=O)[C@@H]1CCCN1C(=O)[C@H](CCC(=O)O)NC(=O)[C@H](Cc1ccccc1)NC(=O)CCC(=O)O)C(=O)N1CCC[C@H]1C(=O)N[C@@H](CCC(=O)O)C(=O)N[C@@H](Cc1ccc(O)cc1)C(=O)N[C@@H](Cc1ccc(O)cc1)C(=O)N[C@@H](CC(C)C)C(=O)NP(=O)(O)O [(Y)] (Suc-FEPIPEYY-X2) |  | 114
16 | CC[C@H](C)[C@H](NC(=O)[C@@H]1CCCN1C(=O)[C@H](CCC(=O)O)NC(=O)[C@H](Cc1ccccc1)NC(=O)[C@H](CC(=O)O)NC(=O)CNC(=O)CCC(=O)O)C(=O)N1CCC[C@H]1C(=O)N[C@@H](CCC(=O)O)C(=O)N[C@@H](Cc1ccc(O)cc1)C(=O)N[C@@H](Cc1ccc(O)cc1)C(=O)N[C@@H](CC(C)C)C(=O)N[C@@H](CCC(N)=O)C(=O)O [(C)] (Suc-GDFEPIPEYYLQ-OH) | 1.76 | 2.39
17 | CC[C@H](C)[C@H](NC(=O)[C@@H]1CCCN1C(=O)[C@H](CCC(=O)O)NC(=O)[C@H](Cc1ccccc1)NC(=O)CCC(=O)O)C(=O)N1CCC[C@H]1C(=O)N[C@@H](CCC(=O)O)C(=O)N[C@@H](Cc1ccc(OS(=O)(=O)O)cc1)C(=O)N[C@@H](Cc1ccc(OS(=O)(=O)O)cc1)C(=O)N[C@@H](CC(C)C)C(=O)N[C@H](CCC(=O)O)C(=O)O [Sulfated form of (T), Suc--Phe--Glu--Pro--Ile--Pro--Glu--Tyr(SO3 H)--Tyr(SO3 H)--Leu--(D)Glu--OH] (Suc-FEPIPE[sY][sY]L[dE]-OH) | 8.32 | 0.509
18 | CC[C@H](C)[C@H](NC(=O)[C@@H]1CCCN1C(=O)[C@H](CCC(=O)O)NC(=O)[C@H](Cc1ccccc1)NC(=O)CCC(=O)O)C(=O)N1CCC[C@H]1C(=O)N[C@@H](CCC(=O)O)C(=O)N[C@@H](Cc1ccc(OS(=O)(=O)O)cc1)C(=O)N[C@@H](Cc1ccc(OS(=O)(=O)O)cc1)C(=O)N[C@@H](CC(C)C)C(=O)O [Sulfated form of (Q), Suc--Phe--Glu--Pro--Ile--Pro--Glu--Tyr (SO3 H)--Tyr(SO3 H)--Leu--OH] (Suc-FEPIPE[sY][sY]L-OH) | 1.85 | 2.49
19 | CC[C@H](C)[C@H](NC(=O)[C@@H]1CCCN1C(=O)[C@H](CCC(=O)O)NC(=O)[C@H](Cc1ccccc1)NC(=O)CCC(=O)O)C(=O)N1CCC[C@H]1C(=O)N[C@@H](CCC(=O)O)C(=O)N[C@@H](Cc1ccc(O)cc1)C(=O)N[C@@H](Cc1ccc(O)cc1)C(=O)N[C@@H](CCCCCC(=O)OC)C(=O)OC [(O)] (Suc-FEPIPEYY[Asu](OMe)-OMe) |  | 26
20 | CC[C@H](C)[C@H](NC(=O)[C@@H]1CCCN1C(=O)[C@H](CCC(=O)O)NC(=O)[C@H](Cc1ccccc1)NC(=O)CCC(=O)O)C(=O)N1CCC[C@H]1C(=O)N[C@@H](CCC(=O)O)C(=O)N[C@@H](Cc1ccc(O)cc1)C(=O)N[C@@H](Cc1ccc(O)cc1)C(=O)N[C@H](CO)CC(C)C [(P)] (Suc-FEPIPEYY[Leu(ol)]) |  | 82.7
